The record followed here is ChEMBL document CHEMBL5465560, “Selectivity Literature for EUbOPEN Chemogenomic Library” (2024).

Assay [1] has as its target Tyrosine-protein kinase ABL1 (Homo sapiens, UniProt P00519). In words: (§1) Selectivity interaction (Kinase panel (Z-LYTE Assay)) EUB0001632a ABL1. Conditions: at 10 µM.
In assay [2] the test system is Tyrosine-protein kinase ABL1 (Homo sapiens), P00519 [Y253F]. The description is as §1. To be noted: at 10 µM.
The target of assay [3] is T1, Ephrin type-B receptor 2 (Homo sapiens) (UniProt P29323).
T1 sequence (whole entry): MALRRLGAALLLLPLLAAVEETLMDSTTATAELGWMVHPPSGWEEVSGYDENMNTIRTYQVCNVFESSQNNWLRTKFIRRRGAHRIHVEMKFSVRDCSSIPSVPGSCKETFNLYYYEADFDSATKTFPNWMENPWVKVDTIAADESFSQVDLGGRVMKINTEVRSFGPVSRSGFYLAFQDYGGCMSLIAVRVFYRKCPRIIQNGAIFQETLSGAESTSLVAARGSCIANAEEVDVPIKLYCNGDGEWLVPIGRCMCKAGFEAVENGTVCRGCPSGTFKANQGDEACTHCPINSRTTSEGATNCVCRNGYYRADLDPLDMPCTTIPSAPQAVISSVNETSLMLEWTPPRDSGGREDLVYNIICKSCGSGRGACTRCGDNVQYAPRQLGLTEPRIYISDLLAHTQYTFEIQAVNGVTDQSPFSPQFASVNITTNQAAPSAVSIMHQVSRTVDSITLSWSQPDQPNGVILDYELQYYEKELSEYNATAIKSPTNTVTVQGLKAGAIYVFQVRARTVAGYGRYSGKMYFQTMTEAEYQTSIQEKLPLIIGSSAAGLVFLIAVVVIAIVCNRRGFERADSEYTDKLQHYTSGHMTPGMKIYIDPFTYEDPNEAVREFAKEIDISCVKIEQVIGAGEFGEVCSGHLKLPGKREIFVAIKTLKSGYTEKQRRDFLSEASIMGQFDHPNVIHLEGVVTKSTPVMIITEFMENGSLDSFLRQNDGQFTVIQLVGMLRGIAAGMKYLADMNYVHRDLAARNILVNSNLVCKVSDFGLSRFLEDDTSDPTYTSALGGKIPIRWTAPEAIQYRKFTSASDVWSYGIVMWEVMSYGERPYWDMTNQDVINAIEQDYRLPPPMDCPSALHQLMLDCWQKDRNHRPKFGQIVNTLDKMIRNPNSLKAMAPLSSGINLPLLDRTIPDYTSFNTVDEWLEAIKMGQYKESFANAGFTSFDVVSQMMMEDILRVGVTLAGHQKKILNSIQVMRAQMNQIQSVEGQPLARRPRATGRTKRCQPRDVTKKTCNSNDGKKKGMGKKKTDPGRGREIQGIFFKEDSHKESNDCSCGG
In words: Selectivity interaction (Kinase panel (Z-LYTE Assay)) EUB0001632a EPHB2. To be noted: at 10 µM.

Assay [4] has as its system Tyrosine-protein kinase ABL1 (Homo sapiens), P00519 [Q252H]. To be noted: at 10 µM.
The target of assay [5] is T2, Histone-lysine N-methyltransferase SMYD3 (Homo sapiens) (UniProt Q9H7B4).
T2 sequence (whole entry): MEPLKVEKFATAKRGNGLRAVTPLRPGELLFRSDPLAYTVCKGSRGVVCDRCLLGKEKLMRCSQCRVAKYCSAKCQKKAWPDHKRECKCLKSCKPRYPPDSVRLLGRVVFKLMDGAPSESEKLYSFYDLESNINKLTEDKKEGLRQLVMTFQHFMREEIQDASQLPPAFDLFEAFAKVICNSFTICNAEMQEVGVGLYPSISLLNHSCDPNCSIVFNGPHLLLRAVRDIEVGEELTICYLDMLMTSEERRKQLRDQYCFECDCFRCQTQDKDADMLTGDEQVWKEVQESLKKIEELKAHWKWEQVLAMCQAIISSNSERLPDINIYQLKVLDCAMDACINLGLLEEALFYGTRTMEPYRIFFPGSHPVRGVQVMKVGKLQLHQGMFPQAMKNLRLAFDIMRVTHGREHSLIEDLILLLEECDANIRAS
Conditions: at 1 µM.

The target of assay [6] is Sigma intracellular receptor 2 (Homo sapiens) (UniProt Q5BJF2). In words: Selectivity interaction (GPCR panel (PDSP screen)) EUB0000311b TMEM97. To be noted: at 10 µM.
Chain of Sigma intracellular receptor 2 (Homo sapiens) (Q5BJF2 whole entry): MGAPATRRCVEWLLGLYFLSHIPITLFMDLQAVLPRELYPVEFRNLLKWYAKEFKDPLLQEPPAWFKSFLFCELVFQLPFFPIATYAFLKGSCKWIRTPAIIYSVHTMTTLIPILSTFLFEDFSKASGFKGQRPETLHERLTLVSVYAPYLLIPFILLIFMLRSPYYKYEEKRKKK
Assay [7] concerns the target Cyclin-dependent kinase 17 (Homo sapiens) (UniProt Q00537). The assay can be described thus: Selectivity interaction (KinomeScan (DiscoverX)) EUB0000092b CDK17. To be noted: at 10 µM.
Assay [8] has as its target BDNF/NT-3 growth factors receptor (Homo sapiens) (UniProt Q16620). In words: Selectivity interaction (KinomeScan (DiscoverX)) EUB0000092b NTRK2. Conditions: at 10 µM.
The target of assay [9] is Non-receptor tyrosine-protein kinase TYK2 (Homo sapiens, UniProt P29597). In words: Selectivity interaction (KinomeScan (DiscoverX)) EUB0000229b TYK2. To be noted: at 10 µM.
Chain of Non-receptor tyrosine-protein kinase TYK2 (P29597 whole entry): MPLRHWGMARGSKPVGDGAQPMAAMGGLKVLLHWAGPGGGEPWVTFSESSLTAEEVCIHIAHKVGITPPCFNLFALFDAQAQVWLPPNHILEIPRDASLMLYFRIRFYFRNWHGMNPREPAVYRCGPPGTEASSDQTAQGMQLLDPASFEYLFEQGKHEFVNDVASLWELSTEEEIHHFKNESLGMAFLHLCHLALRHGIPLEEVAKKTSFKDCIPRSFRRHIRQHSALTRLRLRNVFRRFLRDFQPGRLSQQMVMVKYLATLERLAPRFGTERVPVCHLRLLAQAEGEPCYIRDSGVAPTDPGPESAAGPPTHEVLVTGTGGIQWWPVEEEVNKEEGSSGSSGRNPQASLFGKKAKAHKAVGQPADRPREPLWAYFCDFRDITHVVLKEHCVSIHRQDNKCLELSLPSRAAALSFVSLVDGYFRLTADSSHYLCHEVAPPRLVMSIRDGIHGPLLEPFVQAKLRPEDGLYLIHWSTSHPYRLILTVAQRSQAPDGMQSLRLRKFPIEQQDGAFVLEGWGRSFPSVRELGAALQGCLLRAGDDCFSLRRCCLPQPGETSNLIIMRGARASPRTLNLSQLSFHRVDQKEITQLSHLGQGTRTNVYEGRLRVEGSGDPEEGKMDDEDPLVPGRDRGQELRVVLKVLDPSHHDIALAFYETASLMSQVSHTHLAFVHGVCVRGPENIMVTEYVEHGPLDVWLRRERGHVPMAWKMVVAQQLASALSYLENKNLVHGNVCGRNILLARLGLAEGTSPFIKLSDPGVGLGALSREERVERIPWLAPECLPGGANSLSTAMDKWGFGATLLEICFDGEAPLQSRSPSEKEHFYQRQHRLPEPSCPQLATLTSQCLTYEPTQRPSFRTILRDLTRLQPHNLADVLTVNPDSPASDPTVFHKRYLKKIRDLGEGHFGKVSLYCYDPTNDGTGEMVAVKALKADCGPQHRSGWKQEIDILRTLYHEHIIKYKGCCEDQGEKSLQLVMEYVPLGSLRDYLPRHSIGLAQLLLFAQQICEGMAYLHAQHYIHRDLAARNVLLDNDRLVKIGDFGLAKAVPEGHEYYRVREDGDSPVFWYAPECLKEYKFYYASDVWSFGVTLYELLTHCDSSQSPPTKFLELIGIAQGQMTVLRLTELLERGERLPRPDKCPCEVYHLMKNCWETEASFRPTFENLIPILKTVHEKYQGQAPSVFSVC
Assay [10] deals with T3, Serine/threonine-protein kinase ULK1 (Homo sapiens) (UniProt O75385).
T3 sequence (whole entry): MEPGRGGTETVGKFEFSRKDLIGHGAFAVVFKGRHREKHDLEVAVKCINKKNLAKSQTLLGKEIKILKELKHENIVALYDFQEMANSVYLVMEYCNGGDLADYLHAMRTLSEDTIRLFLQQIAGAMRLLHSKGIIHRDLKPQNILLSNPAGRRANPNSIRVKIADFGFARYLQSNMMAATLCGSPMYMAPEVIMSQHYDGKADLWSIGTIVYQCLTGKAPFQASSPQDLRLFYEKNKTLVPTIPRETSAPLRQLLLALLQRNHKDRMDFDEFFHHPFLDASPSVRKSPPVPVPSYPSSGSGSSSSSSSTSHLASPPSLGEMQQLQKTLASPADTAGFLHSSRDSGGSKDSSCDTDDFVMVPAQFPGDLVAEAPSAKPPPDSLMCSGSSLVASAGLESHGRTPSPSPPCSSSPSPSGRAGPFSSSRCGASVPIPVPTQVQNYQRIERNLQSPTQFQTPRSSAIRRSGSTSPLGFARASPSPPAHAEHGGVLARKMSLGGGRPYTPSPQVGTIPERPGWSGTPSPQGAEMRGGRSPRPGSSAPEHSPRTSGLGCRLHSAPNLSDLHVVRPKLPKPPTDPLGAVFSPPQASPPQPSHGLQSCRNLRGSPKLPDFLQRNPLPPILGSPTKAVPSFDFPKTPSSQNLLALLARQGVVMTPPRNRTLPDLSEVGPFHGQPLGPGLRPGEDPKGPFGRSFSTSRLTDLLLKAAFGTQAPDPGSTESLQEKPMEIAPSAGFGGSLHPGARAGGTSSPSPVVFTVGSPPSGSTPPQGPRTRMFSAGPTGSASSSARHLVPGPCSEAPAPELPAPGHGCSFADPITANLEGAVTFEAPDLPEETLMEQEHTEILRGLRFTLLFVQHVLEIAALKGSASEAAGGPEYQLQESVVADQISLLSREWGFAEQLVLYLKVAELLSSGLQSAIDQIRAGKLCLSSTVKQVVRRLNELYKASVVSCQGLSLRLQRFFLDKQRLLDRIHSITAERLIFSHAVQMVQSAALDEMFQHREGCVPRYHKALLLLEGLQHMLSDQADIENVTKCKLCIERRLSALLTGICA
In words: Selectivity interaction (KinomeScan (DiscoverX)) EUB0000229b ULK1. Conditions: at 10 µM.

Chain of BDNF/NT-3 growth factors receptor (Homo sapiens) (Q16620 32-822 limits assumed): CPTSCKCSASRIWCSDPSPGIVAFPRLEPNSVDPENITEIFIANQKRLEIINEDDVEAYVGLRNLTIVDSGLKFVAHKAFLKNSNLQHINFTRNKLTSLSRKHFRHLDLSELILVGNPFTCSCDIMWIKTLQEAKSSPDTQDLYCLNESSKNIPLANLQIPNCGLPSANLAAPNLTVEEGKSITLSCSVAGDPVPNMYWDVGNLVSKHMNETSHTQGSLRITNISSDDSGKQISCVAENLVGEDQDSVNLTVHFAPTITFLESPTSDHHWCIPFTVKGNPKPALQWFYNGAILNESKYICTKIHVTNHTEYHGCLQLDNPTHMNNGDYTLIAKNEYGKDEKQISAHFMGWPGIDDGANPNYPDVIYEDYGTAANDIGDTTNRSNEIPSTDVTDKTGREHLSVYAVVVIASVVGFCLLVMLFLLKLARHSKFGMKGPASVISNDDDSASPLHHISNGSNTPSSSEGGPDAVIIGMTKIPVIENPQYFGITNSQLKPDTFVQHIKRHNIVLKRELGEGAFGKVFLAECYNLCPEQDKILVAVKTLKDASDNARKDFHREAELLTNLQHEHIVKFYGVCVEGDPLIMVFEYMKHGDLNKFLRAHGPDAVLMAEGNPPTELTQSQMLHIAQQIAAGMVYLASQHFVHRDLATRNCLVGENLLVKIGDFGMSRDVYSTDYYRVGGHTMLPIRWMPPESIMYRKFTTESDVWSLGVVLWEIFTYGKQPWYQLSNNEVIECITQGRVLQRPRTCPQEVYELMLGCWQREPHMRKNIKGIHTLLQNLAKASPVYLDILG
Chain of Cyclin-dependent kinase 17 (Homo sapiens) (Q00537 whole entry, looked up): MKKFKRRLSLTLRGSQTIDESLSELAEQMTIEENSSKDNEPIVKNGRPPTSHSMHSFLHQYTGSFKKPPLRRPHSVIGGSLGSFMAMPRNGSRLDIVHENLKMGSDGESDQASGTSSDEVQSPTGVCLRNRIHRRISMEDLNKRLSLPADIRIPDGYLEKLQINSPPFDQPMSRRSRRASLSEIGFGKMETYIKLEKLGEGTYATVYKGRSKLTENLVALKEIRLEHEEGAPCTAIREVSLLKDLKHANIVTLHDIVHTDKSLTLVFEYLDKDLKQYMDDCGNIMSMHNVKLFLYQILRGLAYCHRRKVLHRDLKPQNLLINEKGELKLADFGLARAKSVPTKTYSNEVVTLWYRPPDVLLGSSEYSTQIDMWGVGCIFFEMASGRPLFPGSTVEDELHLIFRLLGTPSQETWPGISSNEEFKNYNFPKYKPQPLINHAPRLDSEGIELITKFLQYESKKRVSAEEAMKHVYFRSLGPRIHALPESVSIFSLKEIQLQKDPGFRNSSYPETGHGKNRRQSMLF

As to `Cn1cc(-n2cnc3c(NCc4nc5cc(Cl)c(Cl)cc5[nH]4)nc(N4CCOCC4)nc32)cn1`, the results for the % of control in [1], in [2] and in assay [3] were -6.52%, 2.36% and 1.86%, respectively.

With `CCN(CC)CCCCNc1ncc2cc(-c3cc(OC)cc(OC)c3)c(NC(=O)NC(C)(C)C)nc2n1`, in assay [4], the % of control was 100%.

In the case of `CNCCN1CCC(c2cc(CN(C)C(=O)c3cccc(Oc4ccccc4)c3)ccn2)CC1`, the % activity in assay [5] was over 85%.

`CCc1ccccc1C(=O)Nc1n[nH]c2c(C)c(F)c(C3C(C#N)=C(C)N(C)C(C)=C3C#N)cc12` [BAY-3827] showed a % of inhibition in assay [6] of 78.3%.

Turning to `CCC(=O)N1CCN(c2ccc(-n3c(=O)ccc4cnc5ccc(-c6cnc7ccccc7c6)cc5c43)cc2C(F)(F)F)CC1`, the % of control was 97% in assay [7] and 81% in assay [8].

On to `COc1cc(N(C)c2ccnc3ccc(C(F)(F)F)cc23)cc(OC)c1OC`, for which the % binding was 99% in assay [9] and 73% in assay [10].
